# Assay results taken from patent publication US20250011788A1, “NUCLEIC ACID INTERFERENCE PHARMACEUTICAL COMPOSITION, AND DRUG FOR TREATING COLORECTAL CANCER, GASTRIC CANCER, AND PROSTATE CANCER” (SIRNAOMICS BIOPHARMACEUTICALS (SUZHOU) CO., LTD., priority 2022, published 2025).
# d = 2'-deoxy (DNA); r = 2'-OH (RNA)
# Tests used:
# RM-1 cells tumor graft = experiment: Mouse subcutaneous tumor graft model of prostate cancer RM-1 cells; assay type: in vivo, C57BL/6J mice
# Procedure: Next, another tumor graft model was established to further validate the pharmacodynamic evaluation of candidate drug on the growth of mouse tumor graft of mouse prostate cancer RM-1 cells. The nano drug formulation was prepared by the method described above. RM-1 subcutaneous tumor-bearing mice were modeled as follows: C57BL/6J mice were each inoculated subcutaneously with 5×10^6 cells. The mice were grouped on the basis of random numbers when the mean tumor volume reached about 100-120 mm^3. The dosing regimen was as follows: for STP500, 3 mg/kg, intravenously administered (i.v.) via the tail vein, every 2 days (Q2D); for The positive control (docetaxel), 15 mg/kg, intraperitoneally administered (i.p.), every week (QW). After the first dose, the weight and tumor volume of the mice were recorded every 2 days, and the tumor volume was calculated by V=0.5×(Dmax×Dmin^2), where Dmax refers to the longest diameter of the tumor, and Dmin refers to the shortest diameter of the tumor. A tumor volume curve was drawn at the end of the experiment. The mice were euthanized, and tumors were removed and weighed. TGItw (percentage change in Tumor weight) was calculated by:
# (§1) [formula] • Mean TWtreat: the mean tumor weight of the mice in the treatment group at the end of treatment; • Mean TWvehicle: the Mean tumor weight of mice in the Vehicle group at the end of treatment.
# MyD88 gene (mRNA) [1] = experiment: In vitro screening of MyD88 siRNA: MyD88 mRNA silencing by RT-PCR; assay type: cell-based, human; conditions: 100 nM siRNA; for target gene silencing effect in colorectal cells: lipo2000, 20-24 h
# Procedure: Some cell lines screened out in Example 2 were used for primary siRNA screening, including a breast cancer cell line (MDA-MB-231), a neuroglioma cell line (U87-MG), a human brain glioma cell line (T98G), a human colorectal cancer epithelial cell line (DLD-1) and a human colon cancer cell line (RKO). Specifically, the MyD88 siRNA sequence in Table 1 was transfected into the above five cells by lipo2000, and the transfection concentration was 100 nM (calculated by siRNA). After transfection for 20-24 h, the total RNA of the cells was extracted, and the mRNA expression level of the target gene MyD88 was detected by RT-PCR technology. […] The three specifical sequences are MD8-21-hm3# (NTS00025-21-hm3# in FIG. 3), MD8-21-hm4# (NTS00025-21-hm4# in FIG. 3) and MD8-21-hm5# (NTS00025-21-hm5# in FIG. 3).
# MyD88 gene (mRNA) [2] = experiment: EC50 of MyD88 mRNA knockdown in human-derived cell lines; assay type: cell-based
# Procedure: Then, for these candidate siRNA sequences, multiple concentration gradients were set in human-derived cell lines and mouse-derived cell lines respectively for cell transfection, and their EC50 values (half-maximal effective concentration) were obtained. […] In the mouse-derived cell lines, EC50<10 nM only occurs for MD8-21-hm5# in mouse prostate cancer (RM-1) cells and colorectal cancer (MC38) cells as well as MD8-21-hm4# in colorectal cancer (MC38) cells. Therefore, based on the above data, the human-mouse homologous sequence MD8-21-hm5# is preferably used for pharmacodynamic evaluation of animal models in vivo.
# MyD88 protein = experiment: Western Blot knockdown of target gene protein in cell lines (MyD88); assay type: cell-based, human and mouse cell lines; conditions: MDA-MB-231, RKO and RM-1 cells; 100 nM and 10 nM, 48 h
# DLD-1 cells = experiment: In vitro cell migration (wound healing/scratch) test; assay type: cell-based, human; conditions: 96 h, 100 and 10 nM, dose-dependent
# Procedure: On the day before the initiation of the experiment, a 12-well plate was prepared, a 2-well culture-insert for wound healing (ibidi, 80209) was placed in the center of the culture dish, and cells were inoculated into the 2-well culture-insert at 1×10^4 cells per well and cultured overnight. On the second day, siMyD88 was transfected into the cells at […] and 10 nM, and the transfection experiment was completed. After transfection for 24 h, the 2-well culture-insert for wound healing was gently removed with tweezers (to avoid cell shedding), and the 12-well plate was added with a medium containing 1% serum to continue cell culture. At the same time, a photograph was taken under the microscope as the 0 h cell migration data. The culture was continued for 24 h and 96 h, and the cell migration was recorded under the microscope. The cell migration was determined by comparing the wound distance at the initial scratch (0 h) versus at the later observation points (24 h and 96 h).
# MC38 cells tumor graft = experiment: Mouse subcutaneous tumor graft model of colorectal cancer MC38 cells; assay type: in vivo, C57BL/6 mice; conditions: STP500 2 mg/kg i.v. Q2D, siMD8 1 mg/kg i.v. Q2D, Sorafenib 30 mg/kg p.o. QD
# Source text: Based on the data from previous in-vitro experiments, two siRNAs (MD8-21-hm5# and TF1-25-hm5# in this example) were mixed at a mass ratio of 1/1, and encapsulated the mixture into the HKP(+H) (histidine-lysine polymer) carrier through patented PNP technology to prepare the nanoparticle formulation (the nano drug formulation STP500 prepared in Example 8). The tumor growth inhibitory activity of the candidate siRNA sequence was validated by a mouse tumor xenograft model (colorectal cancer cells MC38).
# C57BL/6 mice were each inoculated subcutaneously with 1×10^6 MC38 cells per mouse, and randomized groups when the mean tumor volume reached about 100 mm^3. The dosing regimen was as follows: for STP500, 2 mg/kg, intravenously administered (i.v.) via the tail vein, every 2 days (Q2D); for Small nucleic acid monotherapy MD8 (MyD88 siRNA, also known as siMyD88), 1 mg/kg, intravenously administered (i.v.) via the tail vein, every 2 days (Q2D); and for the positive control group (Sorafenib), 30 mg/kg, intragastrically administered p.o., every day (QD). After the first dose, the weight and tumor volume of the mice were recorded every 2 days, and the tumor volume was calculated by V=0.5×(Dmax×Dmin^2), where Dmax refers to the longest diameter of the tumor, and Dmin refers to the shortest diameter of the tumor. […] TGItw (percentage change in tumor weight) was calculated by: […]
# [3] = system: MKN45 cells tumor xenograft; experiment: Mouse subcutaneous tumor xenograft model of gastric cancer MKN45 cells; assay type: in vivo, BALB/c-Nude mice
# Procedure: Next, another tumor graft model was established to further validate the pharmacodynamic evaluation of candidate drug on the growth of mouse tumor xenograft of human gastric cancer MKN45 cells. The nano drug formulation was prepared by the method described above. MKN45 subcutaneous tumor-bearing mice were modeled as follows: BALB/c-Nude mice were each inoculated subcutaneously with 5×10^6 MKN45 cells. Randomization was performed when the mean tumor volume reached about 100-120 mm^3. […] After the first dose, the weight and tumor volume of the mice were recorded every 2 days, and the tumor volume was calculated by V=0.5×(Dmax×Dmin^2), where Dmax refers to the longest diameter of the tumor, and Dmin refers to the shortest diameter of the tumor. A tumor volume curve was drawn at the end of the experiment. The mice were euthanized, and tumors were removed and weighed. TGItw (percentage change in tumor weight) was calculated by:
# as §1
# TGF-β1 protein = experiment: Western Blot knockdown of target gene protein in cell lines (TGF-β1); assay type: cell-based, human; conditions: RKO cell line; 100 nM and 10 nM, 48 h
# Procedure: The target gene knockdown effects of siRNA sequences on the targets TGF-β1 and MyD88 at the cellular level were evaluated by Western Blot. The procedures were as follows: on The day before the initiation of the experiment, the cells were inoculated in a 6-well plate at 1×10^6 cells per well, and cultured overnight. On the second day, siMyD88 and siTF1 were transfected into the cells at 100 nM and 10 nM respectively. After transfection for 48 h, the cells were collected and transferred to centrifuge tubes. RIPA lysate was added to each tube to extract total cell protein, and then the total cell protein concentration was quantified by a BCA protein quantification method. Western Blot analysis was performed on all protein samples using the following antibodies: MyD88 primary antibody (ab219413, 1:1000), TGF-β1 primary antibody (ab215715, 1:1000), Goat Anti-Rabbit IgG H&L (HRP) (ab205718, 1:10000). After the experiment, the ChemiDoc™ MP Imaging System (BIO-RAD) was used to capture the results.
# Western Blot analysis of protein expression in candidate MyD88 siRNA (MD8-21-hm5#) plus TGF-β1 siRNA (TF1-21-h1#) in three cell lines in in-vitro human breast cancer cell line (MDA-MB-231) (FIG. 5A), human colon cancer cell line (RKO) (FIG. 5B) and mouse prostate cancer (RM-1) cells (FIG. 5C).
compound,measurement,setting,value
CC(=O)O[C@@]12CO[C@@H]1C[C@H](O)[C@@]1(C)C(=O)[C@H](O)C3=C(C)[C@@H](OC(=O)[C@H](O)[C@@H](NC(=O)OC(C)(C)C)c4ccccc4)C[C@@](O)([C@@H](OC(=O)c4ccccc4)[C@H]21)C3(C)C [Docetaxel],effect on the weight of mice,"RM-1 cells tumor graft; STP500 3 mg/kg Q2D, Docetaxel 15 mg/kg i.p. QW",no significant difference
same,growth of prostate cancer tumor graft,"RM-1 cells tumor graft; after 8 doses, compared with control group",did not show a tumor-killing effect
same,"Tumor weight, Mean","RM-1 cells tumor graft; end of treatment, STP500 3 mg/kg i.v. Q2D, Docetaxel 15 mg/kg i.p. QW",4.72 g
same,TGItw (tumor growth inhibition by tumor weight),"RM-1 cells tumor graft; versus Vehicle, STP500 3 mg/kg i.v. Q2D, Docetaxel 15 mg/kg i.p. QW",−4%
"MD8-21-hm5#: MyD88 siRNA; sense GAAUGUGACUUCCAGACCAdTdT (SEQ ID NO: 31), antisense UGGUCUGGAAGUCACAUUCdTdT (SEQ ID NO: 32) (sense GAAUGUGACUUCCAGACCATT; antisense UGGUCUGGAAGUCACAUUCTT; sugars from the 5' end r19 d2, backbone not given here)",target gene silencing effect in colorectal cells,MyD88 gene (mRNA) [1],about 85%
same,effect in EC50 comparison,MyD88 gene (mRNA) [2],relatively good
same,knockdown effect on MyD88 protein,MyD88 protein,obvious knockdown effect
same,inhibitory effect on in vitro migration ability,DLD-1 cells,significant inhibitory effect
"MD8-21-hm3#: MyD88 siRNA; sense CAGAGCAAGGAAUGUGACUdTdT (SEQ ID NO: 27), antisense AGUCACAUUCCUUGCUCUGdTdT (SEQ ID NO: 28) (sense CAGAGCAAGGAAUGUGACUTT; antisense AGUCACAUUCCUUGCUCUGTT; sugars from the 5' end r19 d2, backbone not given here)",target gene silencing effect in colorectal cells,MyD88 gene (mRNA) [1],about 85%
CNC(=O)c1cc(Oc2ccc(NC(=O)Nc3ccc(Cl)c(C(F)(F)F)c3)cc2)ccn1 [Sorafenib],"Tumor weight, Mean",MC38 cells tumor graft; end of treatment,0.3571 g
same,TGItw (tumor growth inhibition by tumor weight),MC38 cells tumor graft; versus Vehicle,12.28%
"MD8-21-hm4#: MyD88 siRNA; sense GCAAGGAAUGUGACUUCCAdTdT (SEQ ID NO: 29), antisense UGGAAGUCACAUUCCUUGCdTdT (SEQ ID NO: 30) (sense GCAAGGAAUGUGACUUCCATT; antisense UGGAAGUCACAUUCCUUGCTT; sugars from the 5' end r19 d2, backbone not given here)",target gene silencing effect in colorectal cells,MyD88 gene (mRNA) [1],about 85%
O=C1[O][Pt]2([NH][C@@H]3CCCC[C@H]3[NH]2)[O]C1=O [Oxaliplatin],growth of gastric cancer tumor graft,"[3]; after 7 doses, compared with control group",better tumor inhibition effect
same,"Tumor weight, Mean","[3]; end of treatment, STP500 3 mg/kg i.v. Q2D, Oxaliplatin 7.5 mg/kg i.p. QD",0.16 g
same,TGItw (tumor growth inhibition by tumor weight),"[3]; versus Vehicle, STP500 3 mg/kg i.v. Q2D, Oxaliplatin 7.5 mg/kg i.p. QD",58%
"MD8-21-h5#: MyD88 siRNA; sense GCAUACACACGUUUUUCUAdTdT (SEQ ID NO: 9), antisense UAGAAAAACGUGUGUAUGCdTdT (SEQ ID NO: 10) (sense GCAUACACACGUUUUUCUATT; antisense UAGAAAAACGUGUGUAUGCTT; sugars from the 5' end r19 d2, backbone not given here)",ranking of silencing effect among human-derived sequences,MyD88 gene (mRNA) [1]; five human cell lines,best effect
same,effect in EC50 comparison,MyD88 gene (mRNA) [2],relatively good
"TF1-21-h1#: TGF-β1 siRNA; sense GCAGAGUACACACAGCAUAdTdT (SEQ ID NO: 37), antisense UAUGCUGUGUGUACUCUGCdTdT (SEQ ID NO: 38) (sense GCAGAGUACACACAGCAUATT; antisense UAUGCUGUGUGUACUCUGCTT; sugars from the 5' end r19 d2, backbone not given here)",knockdown effect on TGF-β1 protein,TGF-β1 protein,obvious knockdown effect
